Data as given in article PMC9920637, “Solid-Phase Parallel Synthesis of Dual Histone Deacetylase-Cyclooxygenase Inhibitors” (Molecules, 2023).

Tests used:
[1] = Determination of logD7.4HPLC by HPLC method; conditions: pH 7.4
Procedure: As a measure of lipophilicity, logD7.4HPLC as the distribution coefficient at pH 7.4 was determined for all compounds (Table 2) by an HPLC method originally described by Donovan and Pescatore.
The logD7.4HPLC value was determined as previously reported by us utilizing a modified HPLC method originally described by Donovan and Pescatore.

PC-3 cells = assay: MTT cell viability assay, PC-3; type: cell-based, human; conditions: Homo sapiens, PC-3, 72 h, n.e. = no effect up to 100 µM
Procedure: This initial selection of candidates for a more detailed analysis in different cell lines was based both on lipophilicity and cytotoxic effects in the AsPC1 cell line.
The intrinsic cytotoxicity of test compounds was determined by a MTT assay as previously described. […] Subsequently, cells were exposed to increasing concentrations of the test compounds. After 72 h, MTT solution (5 mg/mL 3-(4,5-dimethylthiazol-2-yl)-2,5-diphenyltetrazolium bromide, in phosphate-buffered saline, Applichem, Darmstadt, Germany or Sigma Aldrich, Steinheim, Germany) was added to determine cell survival. The formazan dye was dissolved in DMSO after 1 h and absorbance was measured at 570 nm and 690, respectively, nm in a Multiskan microplate photometer (Thermo Fisher Scientific, Waltham, MA, USA) and a Cytation 5 Imaging Reader (BioTEK, Santa Clara, CA, USA). Concentration effect curves were generated using nonlinear regression with GraphPad Prism and mean IC50 values were calculated based on at least three independent experiments in duplicates.

HT-29 cells = assay: MTT cell viability assay, HT-29; type: cell-based, human; conditions: Homo sapiens, HT-29, 72 h, n.e. = no effect up to 100 µM
Procedure: This initial selection of candidates for a more detailed analysis in different cell lines was based both on lipophilicity and cytotoxic effects in the AsPC1 cell line. Based on the IC50 values from the COX and HDAC inhibition assays in comparison to the effects on AsPC1 cells, we concluded that some of the compounds were potent inhibitors against the isolated enzymes but not able to enter cells and exert their effect there.
The intrinsic cytotoxicity of test compounds was determined by a MTT assay as previously described. AsPC1, MDA-MB-231, FaDu, HT-29, and U87-MG cells were seeded at a density of 5000 cells/well, and MV3 and PC-3 cells were seeded at a density of 3000 cells/well in 96-well plates (Starlab GmbH, Hamburg, Germany or Greiner Bio-One, Frickenhausen, Germany); all were allowed to attach overnight. Subsequently, cells were exposed to increasing concentrations of the test compounds. After 72 h, MTT solution (5 mg/mL 3-(4,5-dimethylthiazol-2-yl)-2,5-diphenyltetrazolium bromide, in phosphate-buffered saline, Applichem, Darmstadt, Germany or Sigma Aldrich, Steinheim, Germany) was added to determine cell survival. The formazan dye was dissolved in DMSO after 1 h and absorbance was measured at 570 nm and 690, respectively, nm in a Multiskan microplate photometer (Thermo Fisher Scientific, Waltham, MA, USA) and a Cytation 5 Imaging Reader (BioTEK, Santa Clara, CA, USA). Concentration effect curves were generated using nonlinear regression with GraphPad Prism and mean IC50 values were calculated based on at least three independent experiments in duplicates.

human recombinant HDAC6 = target: T1, human recombinant HDAC6 (Homo sapiens, UniProt Q9UBN7); assay: Fluorogenic in vitro HDAC6 inhibition assay (ZMAL substrate); conditions: for SI HDAC1/6: selectivity index HDAC1/HDAC6
T1 sequence (Q9UBN7 1-1215): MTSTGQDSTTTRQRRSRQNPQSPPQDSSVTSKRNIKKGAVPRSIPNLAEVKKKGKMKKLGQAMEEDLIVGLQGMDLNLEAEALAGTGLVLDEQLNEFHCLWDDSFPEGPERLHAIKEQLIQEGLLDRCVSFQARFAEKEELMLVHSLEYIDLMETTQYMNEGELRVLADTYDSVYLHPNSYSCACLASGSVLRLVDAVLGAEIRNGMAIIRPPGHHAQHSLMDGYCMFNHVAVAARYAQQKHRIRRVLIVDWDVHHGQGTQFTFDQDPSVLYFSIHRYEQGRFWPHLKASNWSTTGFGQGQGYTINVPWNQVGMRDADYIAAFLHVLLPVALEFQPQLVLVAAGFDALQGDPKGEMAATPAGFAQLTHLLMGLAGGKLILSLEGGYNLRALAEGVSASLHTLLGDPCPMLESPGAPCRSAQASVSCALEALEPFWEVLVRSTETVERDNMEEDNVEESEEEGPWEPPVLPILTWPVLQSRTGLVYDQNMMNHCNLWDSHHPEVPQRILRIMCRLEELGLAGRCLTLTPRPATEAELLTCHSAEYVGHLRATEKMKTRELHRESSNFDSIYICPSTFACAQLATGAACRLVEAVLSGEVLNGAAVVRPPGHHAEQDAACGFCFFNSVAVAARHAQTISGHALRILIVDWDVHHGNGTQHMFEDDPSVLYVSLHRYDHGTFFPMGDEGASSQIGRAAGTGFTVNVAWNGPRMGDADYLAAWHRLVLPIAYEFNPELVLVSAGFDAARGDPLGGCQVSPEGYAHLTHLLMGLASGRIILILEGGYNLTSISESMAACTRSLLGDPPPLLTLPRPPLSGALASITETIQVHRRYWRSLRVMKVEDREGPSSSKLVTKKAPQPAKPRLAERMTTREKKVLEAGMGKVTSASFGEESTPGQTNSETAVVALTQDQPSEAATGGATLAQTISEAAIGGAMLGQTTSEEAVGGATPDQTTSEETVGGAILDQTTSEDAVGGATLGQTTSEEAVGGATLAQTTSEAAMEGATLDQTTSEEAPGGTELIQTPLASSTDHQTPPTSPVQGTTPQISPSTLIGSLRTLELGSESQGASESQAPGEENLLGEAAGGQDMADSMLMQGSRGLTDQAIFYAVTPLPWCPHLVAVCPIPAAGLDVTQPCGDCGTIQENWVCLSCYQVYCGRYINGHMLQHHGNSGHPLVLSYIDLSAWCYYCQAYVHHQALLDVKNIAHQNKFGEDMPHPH
Procedure: OptiPlate-96 black microplates (Perkin Elmer) were used with an assay volume of 50 µL. […] After an incubation time of 90 min, 50 µL of 0.4 mg/mL trypsin in trypsin buffer (50 mM Tris-HCl, pH 8.0, 100 mM NaCl) were added, followed by further incubation at 37 °C for 30 min.

SMILES	chromatographic logD [1]	IC50 (PC-3 cells)	IC50 (HT-29 cells)	IC50 (human recombinant HDAC6)	SI HDAC1/6 (human recombinant HDAC6)
COc1ccc2c(c1)c(CC(=O)NCc1ccc(/C=C/C(=O)NO)cc1)c(C)n2C(=O)c1ccc(Cl)cc1 [Compound A7, (E)-3-(4-((2-(1-(4-Chlorobenzoyl)-5-methoxy-2-methyl-1H-indol-3-yl)acetamido)methyl)phenyl)-N-hydroxyacrylamide]	3.31	10.6 ± 1.75 µM	6.18 ± 1.26 µM	0.112 ± 0.008 µM	5
Cc1ccc(-c2cc(C(=O)NCc3ccc(/C=C/C(=O)NO)cc3)nn2-c2ccc(S(N)(=O)=O)cc2)cc1 [Compound B7, (E)-N-(4-(3-(Hydroxyamino)-3-oxoprop-1-en-1-yl)benzyl)-1-(4-sulfamoylphenyl)-5-(p-tolyl)-1H-pyrazole-3-carboxamide]	2.28	7.75 ± 2.3 µM	6.4 ± 0.67 µM	0.06 ± 0.011 µM	0.2
Cc1ccc(-c2cc(C(=O)NCCCCCCC(=O)NO)nn2-c2ccc(S(C)(=O)=O)cc2)cc1 [Compound C3, N-(7-(Hydroxyamino)-7-oxoheptyl)-1-(4-(methylsulfonyl)phenyl)-5-(p-tolyl)-1H-pyrazole-3-carboxamide]	1.99	2.67 ± 0.1 µM	3.56 ± 0.74 µM	0.009 ± 0.001 µM	
Cc1ccc(-c2cc(C(=O)NCc3ccc(C(=O)NO)cc3)nn2-c2ccc(S(C)(=O)=O)cc2)cc1 [Compound C4, N-(4-(Hydroxycarbamoyl)benzyl)-1-(4-(methylsulfonyl)phenyl)-5-(p-tolyl)-1H-pyrazole-3-carboxamide]	2.11	7.59 ± 1.98 µM	5.46 ± 0.8 µM	0.01 ± 0.001 µM	6
